From PMC10017027, “Design and Synthesis of Novel HIV-1 NNRTIs with Bicyclic Cores and with Improved Physicochemical Properties” (Journal of Medicinal Chemistry, 2023)
≈ marks a conversion by molar mass, not a printed value. Read-outs that look alike come from different tables or passages of the source.

What was measured:
in vitro = format: cell-based; details: human
Experimental: (§1) The prepared compounds were tested for their anti-HIV-1 activity (Table 1). A viral cytopathic effect assay in MT-4 cells with HIV-1 IIIB virus was used to determine compound potency (EC50, 50% cell viability) in protecting virus induced cell killing. Compound cytotoxicity was assessed in MT-4 cells in the absence of virus (CC50, 50% cytotoxicity). […] ETV contains bromo and amino substitutions on the DAPY core. […] Likely, with the smaller cyano arm I in 1, 3, and 5, the cores could be further elaborated to optimize the compound position in the pocket and to improve potency.
(§2) Compounds were tested in a high-throughput 384-well assay format for their ability to inhibit the virus replication-induced cytopathic effect in MT-4 cell cultures acutely infected with HIV-1 (IIIB strain), HXB2, HXB2-K103N, and HXB2-Y181C. Compounds were serially diluted (1:3) in DMSO on 384-well polypropylene plates and further diluted 200-fold into complete RPMI media (10% FBS, 1% P/S) using Biotek Micro Flow and an Agilent ECHO acoustic dispenser. Each plate contained up to eight test compounds, with negative (no drug control) and 5 μM AZT positive controls. MT-4 cells were further diluted in complete RPMI media and added to each plate using a Micro-Flo dispenser. After five days of incubation in a humidified and temperature-controlled incubator (37 °C), Cell Titer Glo (Promega) was added to the assay plates to quantify the amount of […]. EC50 and CC50 values were defined as the compound concentration that causes a 50% decrease in luminescence signal and were calculated using a sigmoidal dose-response model to generate curve fits.

HIV-1 HXB2 K103N variant = experiment: MT-4 antiviral cytopathic effect assay, HXB2-K103N; format: cell-based; details: for EC50: Human immunodeficiency virus 1, HXB2, read-out: EC50 K103N
Experimental: as §1, §2

HIV-1 HXB2 Y181C variant = experiment: MT-4 antiviral cytopathic effect assay, HXB2-Y181C; format: cell-based; details: for EC50: Human immunodeficiency virus 1, HXB2, read-out: EC50 Y181C
Experimental: as §1, §2

[1] = Solubility assessment, shake-flask method; format: physicochemical; details: for solubility thermodynamic / HCl sol / PBS sol: supplement CSV; for solubility: shake-flask
Experimental: Compound solubility was measured at Analiza (Cleveland, OH) by the standard shake-flask method at pH 1.2 and 7.4 and quantitated by HPLC-UV.

[2] = MDCK permeability assay (A to B); format: in vitro ADME, Canine; details: dog, MDCK
Excerpt: (§3) Compounds were further tested in a Madin–Darby Canine Kidney (MDCK) assay to evaluate their potential for oral absorption. […] Additionally, there was no trend for better permeability when comparing arm I versus arm II when matched with the same core. The size of the B ring had the greatest influence on Papp with the trend being five-membered > six-membered > seven-membered rings (Table 1).
(§4) cMdr1-KO cells were maintained in Dulbecco’s modified Eagle’s medium (DMEM) with sodium pyruvate and GlutaMax, supplemented with 1% Pen/Strep and 10% fetal bovine serum in an incubator set at 37 °C, 90% humidity, and 5% CO2. MDCKII- cMdr1-KO cells were grown to confluence over 3 days on 96-well PET plates with 1 μm pore size, polyester membrane (Corning 3392). Experiments were run using HBSS donor buffer from Invitrogen containing an additional 10 mM HEPES, 15 mM glucose, and 0.1% BSA adjusted to pH 7.4. The receiver well had HBSS buffer supplemented with 1% BSA, 10 mM HEPES, 15 mM glucose, and the pH was adjusted to 7.4. TEER values were read to test membrane integrity at the beginning of the assay. The experiment was started by the addition of dosing solutions containing test compounds. Samples were taken from the donor compartment at 0/120 min and from the receiver compartment at 120 min. Each compound was tested in two separate replicate wells. All samples were immediately collected in a 72:8:20 MeCN/MeOH:H2O mix to precipitate protein and stabilize the test compounds. Cells were dosed on the apical side to determine forward (A to B) permeability. To test for non-specific binding and compound instability, the total amount of drug was quantified at the end of the experiment and compared to the material present in the original dosing solution as a percentage of recovery. Samples were analyzed by RF-QToF.

MDCKII-cMdr1-KO cells = experiment: MDCK permeability assay (A to B); format: in vitro ADME, Canine; details: in words
Excerpt: as §3, §4

[3] = Predicted clearance in human liver microsomes; format: in vitro ADME; details: pH 7.4, 1 μM compound, read-out: HLM CLint, pred (converted)
Experimental: Next, microsome stability was profiled in purified human liver microsomes (HLM).
Metabolic stability of compounds was assessed using HLM (Corning cat. 457117).[52] In this assay, 10 nL compounds at a concentration of 1 mM in 100% DMSO are dispensed into 384-well polypropylene plates using the Echo 550 acoustic liquid dispenser (Labcyte). Each plate contains 384 wells with a single test compound in each well.
A solution of HLM at 2 mg/mL in 100 mM K2HPO4/KH2PO4 pH 7.4 with 0.0225 mg/mL Alamethicin from Trichoderma viride (Sigma-Aldrich cat. A4665-10MG) was incubated on ice for 15 min. 5 μL of this solution was added to individual wells following 15 min incubation at room temperature; and supplemented with 5 μL NADPH Regenerating Solution of cofactors (Corning Gentest UGT Reaction Mix solutions A and B, cat. 451200 and 451220) containing 100 mM K2HPO4/KH2PO4 pH 7.4, 2.6 mM NADP^+, 6.6 mM glucose-6-phosphate, 6.6 mM MgCl2, 0.8 U/mL glucose-6-phosphate dehydrogenase, 0.1 mM sodium citrate, and 6.8 mM uridine diphosphate-glucuronic acid. The final concentration of analyte compounds at the beginning of the reactions was 1 μM. The reactions were incubated at 37 °C, and time points of 0, 5, 15, 30, 40, 50, 60, and 70 min were collected for further analysis. Background data were collected using reactions without analyte compounds.
Upon collection of the reaction time points, samples were quenched at the set time points with 30 μL of a solution of 72% acetonitrile, 8% methanol, 0.1% formic acid, 19.9% water, and labetalol as an internal standard (IS) at a concentration of 650 nM. Reaction plates were span in a centrifuge at a speed of 4000 rcf for 30 min and 4 °C, following a dilution of the 10 μL quenched reaction into 40 μL de-ionized water, yielding assay plates.
Samples were analyzed by a solid-phase extraction coupled with a quadrupole time-of-flight mass spectrometer, using an Agilent QToF 6530 RapidFire 360 system with C4 type A solid state cartridges. Analysis was performed in either positive or negative ionization modes. Mobile phases contained 0.1% formic acid in water for loading analytes onto solid state extraction cartridges, and 0.1% formic acid in acetonitrile for elution into the mass spectrometer in positive ionization mode, or 0.1% acetic acid in water for loading and 0.1% acetic acid in acetonitrile for extraction in negative ionization mode. Peak-area ratios of integrated counts for individual compounds to IS were plotted as a semi-logarithmic chart of log versus time. Initial, linear portion of decay was fitted to a linear regression equation to derive the half-time of a compound decay.
Pharmacological parameters for an analyte compound metabolism were calculated using the equations described in Table S2.
Table S2. Pharmacological parameters for an analyte compound metabolism were
calculated using the following equations:
Intrinsic Clearance (in Cl = ln 2
int, in vitro T1/2 ∗ Conc
Intrinsic Clearance Cl = Clint, in vitro ∗ Liver Mass ∗ Yield
Predicted Hepatic Cl = Clint ∗ QH
QH (Hepatic Blood Flow) = 1.3 L/hr/kg

E138K = details: cell culture; cited from earlier work
HIV-1 (IIIB strain) = experiment: MT-4 antiviral cytopathic effect assay, HIV-1 IIIB; format: cell-based; details: HIV-1 IIIB, WT
Experimental: (§5) The prepared compounds were tested for their anti-HIV-1 activity (Table 1). A viral cytopathic effect assay in MT-4 cells with HIV-1 IIIB virus was used to determine compound potency (EC50, 50% cell viability) in protecting virus induced cell killing. Compound cytotoxicity was assessed in MT-4 cells in the absence of virus (CC50, 50% cytotoxicity).
as §2

HIV-1 HXB2 = experiment: MT-4 antiviral cytopathic effect assay, HXB2 wild-type virus; format: cell-based
Experimental: as §5, §2

[4] = Solubility assessment, shake-flask method; format: physicochemical; details: compared to the other compounds, in words
[5] = fold change: ratio of potency against HXB2 K103N and parental HXB2
[6] = supplement CSV, fold change vs HXB2
[7] = fold change: ratio of potency against HXB2 Y181C and parental HXB2
[8] = HCl, pH 1.2, read-out: solubility HCl
[9] = phosphate-buffered saline, pH 7.4, read-out: solubility PBS
[10] = apparent permeability coefficient, A to B, pH 7.4
[11] = Human immunodeficiency virus 1, IIIB, MT4, protects 50% of MT-4 cells against HIV-1-induced cell killing, read-out: EC50 MT4
[12] = Human immunodeficiency virus 1, MT4, HIV-1 HXB2 wild-type, MT-4 cells, read-out: EC50 HXB2

SMILES | CC50 at 120 h (in vitro) [nM] | EC50 (HIV-1 HXB2 K103N variant) [nM] | K103N (FC) (HIV-1 HXB2 K103N variant; [5]) | K103N (FC) (HIV-1 HXB2 K103N variant; [6]) | EC50 (HIV-1 HXB2 Y181C variant) [nM] | Y181C (FC) (HIV-1 HXB2 Y181C variant; [7]) | Y181C (FC) (HIV-1 HXB2 Y181C variant; [6]) | solubility [1, 8] [µM] | solubility [1, 9] [µM] | Papp A→B at 120 min ([2]; supplement CSV) [×10⁻⁶ cm/s] | Papp A→B at 120 min [2, 10] [×10⁻⁶ cm/s] | permeability (Papp) in the MDCK assay (MDCKII-cMdr1-KO cells) | CLint scaled at 1.167 h, 1 µM [3] [mL/min/kg] | resistance conferred by E138K (E138K) | HCl sol [1] [µM] | PBS sol [1] [µM] | EC50 (HIV-1 (IIIB strain); [11]) [nM] | EC50 (HIV-1 HXB2; [12]) [nM] | other results
Cc1cc(/C=C/C#N)cc(C)c1Nc1ccnc(Nc2ccc(C#N)cc2)n1 [RPV, rilpivirine, reference compound] | 6500 | 1.5 | 1.3 | 1.3 | 3.8 | 3.2 | 3.2 | > 100 | < 1 | 4.6 | 4.6 | moderate | 14.3 | 2–3 fold | – | – | – | – | solubility thermodynamic ([1]; HCl, pH 1.2, read-out: HCl sol): > 100 µM; solubility thermodynamic ([1]; PBS, pH 7.4, aqueous buffer, read-out: PBS sol): < 1 µM
Cc1cc(C#N)cc(C)c1Oc1nc(Nc2ccc(C#N)cc2)nc(N)c1Br [ETV, etravirine, reference compound] | 7300 | 2.3 | 0.9 | 0.9 | 11.1 | 4.8 | 4.8 | < 1 | < 1 | 3.8 | 3.8 | moderate | 4.17 | 2–3 fold | <1 | <1 | – | – | EC50 (HIV-1 (IIIB strain); Human immunodeficiency virus 1, MT4, read-out: EC50 MT4, protects 50% of MT-4 cells against HIV-1-induced cell killing): 2.4 nM; EC50 (HIV-1 HXB2; Human immunodeficiency virus 1, HXB2, MT4, read-out: EC50 HXB2): 2.5 nM
Cc1cc(C#N)cc(C)c1N1CCC(=O)Nc2cnc(Nc3ccc(C#N)cc3)nc21 [Compound 5, 4-{2-[(4-Cyanophenyl)amino]-6-oxo-5H,6H,7H,8H,9H-pyrimido[4,5-b][1,4]diazepin-9-yl}-3,5-dimethylbenzonitrile] | – | 70.7 | 2.4 | 2.4 | 198 | 6.7 | 6.7 | 87.3 (≈ 35.7 µg/mL) | 1.4 (≈ 0.573 µg/mL) | 3.5 | 3.5 | – | 15.5 | – | 87.3 | 1.4 | 43.4 | 29.4 | CC50 at 5 days (in vitro): > 50000 nM
Cc1cc(/C=C/C#N)cc(C)c1N1CC(=O)Nc2cnc(Nc3ccc(C#N)cc3)nc21 [Compound 4, 4-[(8-{4-[(1E)-2-Cyanoeth-1-en-1-yl]-2,6-dimethylphenyl}-6-oxo-5,6,7,8-tetrahydropteridin-2-yl)amino]benzonitrile] | 42400 | 2.8 | 1.2 | 1.2 | 4.9 | 2.0 | 2.0 | 6.5 (≈ 2.74 µg/mL) | 1.8 (≈ 0.759 µg/mL) | 4.2 | 4.2 | – | 16.3 | – | 6.5 | 1.8 | 2.6 to 3 | 2.4 | EC50 (HIV-1 (IIIB strain); protects 50% of MT-4 cells against HIV-1-induced cell killing, read-out: EC50 MT4): 2.7 nM; solubility at pH 2 [4]: markedly reduced
